O=C(O)c1cc([N+](=O)[O-])ccc1O
solubility (mole fraction)
Conditions | 278.15 K | 283.15 K | 288.15 K | 293.15 K | 298.15 K | 303.15 K | 308.15 K | 313.15 K | 318.15 K | 323.15 K
in 1,4-dioxane | – | – | 0.105 | 0.112 | 0.12 | 0.129 | 0.137 | 0.147 | 0.158 | 0.168
in DMF | 0.0752 | 0.0819 | 0.0894 | 0.0993 | 0.111 | 0.126 | 0.143 | 0.161 | 0.181 | 0.204
in NMP | 0.105 | 0.111 | 0.119 | 0.13 | 0.141 | 0.156 | 0.17 | 0.187 | 0.204 | 0.223
in acetonitrile | 0.0327 | 0.0366 | 0.0416 | 0.0481 | 0.0553 | 0.0632 | 0.0724 | 0.0814 | 0.0908 | 0.102
in ethanol | 0.0281 | 0.0307 | 0.0338 | 0.0379 | 0.0429 | 0.0481 | 0.0541 | 0.0605 | 0.0675 | 0.0752
in ethyl acetate | 0.0202 | 0.0234 | 0.027 | 0.031 | 0.0355 | 0.0404 | 0.0455 | 0.0509 | 0.0566 | 0.063
in ethylene glycol | 0.00911 | 0.0116 | 0.0142 | 0.0164 | 0.0197 | 0.0233 | 0.0262 | 0.0308 | 0.035 | 0.0393
in isobutanol | 0.0125 | 0.0149 | 0.0179 | 0.0211 | 0.0252 | 0.0296 | 0.0343 | 0.0383 | 0.043 | 0.0495
in isopropanol | 0.0255 | 0.0286 | 0.0322 | 0.0367 | 0.0406 | 0.046 | 0.052 | 0.0575 | 0.0641 | 0.0728
in methanol | 0.0316 | 0.0345 | 0.038 | 0.0427 | 0.0479 | 0.0538 | 0.0596 | 0.0661 | 0.0728 | 0.0807
in n-butanol | 0.0173 | 0.0203 | 0.0237 | 0.0275 | 0.032 | 0.0368 | 0.0421 | 0.0474 | 0.0533 | 0.06
in n-propanol | 0.0232 | 0.0266 | 0.0302 | 0.0342 | 0.0387 | 0.0433 | 0.0488 | 0.0537 | 0.0597 | 0.0656
in water | 3.03e-05 | 3.95e-05 | 5.22e-05 | 6.76e-05 | 8.62e-05 | 0.000107 | 0.000133 | 0.000165 | 0.000202 | 0.000253

Reference: BigSolDB 2.1
